Tests used:
[1] = system: STZ induced diabetic nephropathy in rats; test: Study 3: HCQ and its combination with Losartan, Telmisartan, Azilsartan and Ramipril; type: in vivo, Wistar rats; conditions: oral once daily 8 weeks
Procedure: The methods described in Terri et al, Diabetes Volume, 1997, 46:1612-1618, and Takashi et al, Jpn J. Pharmacol, 1997, 75, 59-64, were followed for inducing Diabetes in rats by injecting Streptozotocin. The Efficacy of the drugs was tested in two different models, one involving comparison with diabetic control (i.e. Diabetic Rats not treated with any medication) and the other involving comparison with the anti-diabetic control group (i.e. Diabetic rats administered Glimepiride) in two separate studies.
Male Wistar rats weighing 150-350 g were divided randomly into 29 groups consisting of 6 animals each. Diabetes was induced in rats by single administration of streptozotocin (55 mg/kg/i.p) dissolved in 0.1 M-citrate buffer, pH 4.5. Group 1 (normal control) consisted of normal rats that neither received streptozotocin nor any test drug; Group 2 consisted of normal rats treated with vehicle, Group 3 served as Streptozotocin (STZ) induced diabetic control. Group 4 was diabetic rats treated with Losartan (LT) (5.5 mg/kg); Group 5 was diabetic rats treated with LT (11 mg/kg); Group 6 was diabetic rats treated with Hydroxychloroquine (HCQ) (22.5 mg/kg), Group 7 was diabetic rats treated with HCQ (45 mg/kg); Group 8 was diabetic rats treated with combination of LT (5.5 mg/kg) and HCQ (22.5 mg/kg); Group 9 was diabetic rats treated with combination of LT (5.5 mg/kg) and HCQ (45 mg/kg); Group 10 was diabetic rats treated with LT (11 mg/kg) and HCQ (22.5 mg/kg); Group 11 was diabetic rats treated with LT (11 mg/kg) and HCQ (45 mg/kg); Group 12 was diabetic rats treated with Telmisartan (TL) (5 mg/kg); Group 13 was diabetic rats treated with Telmisartan (TL) (10 mg/kg); Group 14 was diabetic rats treated with the combination of TL (5 mg/kg) and HCQ (22.5 mg/kg); Group 15 was diabetic rats treated with the combination of TL (5 mg/kg) and HCQ (45 mg/kg); Group 16 was diabetic rats treated with the combination of TL (10 mg/kg) and HCQ (22.5 mg/kg); Group 17 was diabetic rats treated with the combination of TL (10 mg/kg) and HCQ (45 mg/kg); Group 18 was diabetic rats treated with Azilsartan (AZ) (2 mg/kg); Group 19 was diabetic rats treated with Azilsartan (AZ) (4 mg/kg); Group 20 was diabetic rats treated with combination of AZ (2 mg/kg) and HCQ (22.5 mg/kg); Group 21 was diabetic rats treated with combination of AZ (2 mg/kg) and HCQ (45 mg/kg); Group 22 was diabetic rats treated with combination of AZ (4 mg/kg) and HCQ (22.5 mg/kg); Group 23 diabetic rats treated with combination of AZ (4 mg/kg) and HCQ (45 mg/kg); Group 24 was diabetic rats treated with Ramipril (RM) (0.2 mg/kg); Group 25 was diabetic rats treated with RM (2.3 mg/kg); Group 26 was diabetic rats treated with combination of RM […]) and HCQ (22.5 mg/kg); Group 27 was diabetic rats treated with combination of RM (0.2 mg/kg) and HCQ (45 mg/kg); Group 28 was diabetic rats treated with combination of RM (2.3 mg/kg) and HCQ (22.5 mg/kg); Group 29 was diabetic rats treated with combination of RM (2.3 mg/kg) and HCQ (45 mg/kg). The study drugs (LT and HCQ) were dissolved in distilled water and other study drugs (AZ, RM and TL) were suspended in 0.5% w/v sodium carboxy methyl cellulose (CMC) and administered orally once a day for eight weeks. Biochemical parameters like serum urea, serum creatinine, serum protein, and renal oxidative stress parameters like TBARS and GSH were assessed after the completion of eighth week of the study.

[2] = system: Streptozotocin (STZ) induced diabetic rats; test: Study 2: HCQ and its combination with Losartan in comparison with anti-diabetic control (Glimepiride) in renal damage; type: in vivo, Wistar rats; conditions: for Serum Creatinine after 8th week / Serum Creatinine after 8th week (% Control) / Total Serum Protein Levels after 8th week / Total Serum Protein Levels after 8th week (% Control): Glimepiride 8 mg/kg alone (antidiabetic control) or with Losartan 11 mg/kg and/or Hydroxychloroquine 45 mg/kg, oral once daily; for Total Protein in Kidney Homogenate (% Control) / Total Protein in Kidney Homogenate Mean / TBARS (% Control) / TBARS Mean: after 8th week, Glimepiride 8 mg/kg alone or with Losartan 11 mg/kg and/or Hydroxychloroquine 45 mg/kg; for TBARS (% Control) / TBARS Mean: kidney homogenate
Procedure: The Efficacy of the drugs was tested in two different models, one involving comparison with diabetic control (i.e. Diabetic Rats not treated with any medication) and the other involving comparison with the anti-diabetic control group (i.e. Diabetic rats administered Glimepiride) in two separate studies. 30 Wistar rats of either sex weighing 150-250 g were divided randomly into 5 groups consisting of 6 animals each. Diabetes was induced in rats by single administration of Streptozotocin (STZ)(55 mg/kg/i.p) dissolved in 0.1 M-citrate buffer, pH 4.5. Group 1 (normal control) consisted of normal rats that neither received streptozotocin nor any test drug; Group 2 served as Anti-Diabetic control wherein diabetic rats were treated with antidiabetic drug Glimepiride. Group 3 was diabetic rats treated with Losartan (11 mg/kg); Group 4 was diabetic rats treated with Hydroxychloroquine (45 mg/kg) and Group 5 was diabetic rats treated with combination of Hydroxychloroquine (45 mg/kg) and Losartan (11 mg/kg). The study drugs were dissolved/suspended in distilled water and administered orally once a day for eight weeks. The diabetes mellitus induced nephropathy was assessed by estimating the level of serum creatinine and total serum protein content after completion of eighth week of study. TBARS and Total Protein were measured as markers of renal oxidative stress in Kidney Homogenate after completion of eighth week of study.

[3] = dose mg/kg: LT 5.5, TL 5, AZ 2, RM 0.2, HCQ 22.5, alone or combined with HCQ 22.5
[4] = dose mg/kg: LT 11, TL 10, AZ 4, RM 2.3, HCQ 45, alone or combined with HCQ 45

| SMILES | Creatinine clearance [1, 3] [mL/min] | GSH [1, 3] [nM/mg] | Serum creatinine [1, 3] [mg/dL] | Serum protein [1, 3] [g/dL] | Serum urea [1, 3] [mg/dL] | TBARS [1, 3] [nM/mg] | Urea clearance [1, 3] [mL/min] | Creatinine clearance [1, 4] [mL/min] | GSH [1, 4] [nM/mg] | Serum creatinine [1, 4] [mg/dL] | Serum protein [1, 4] [g/dL] | Serum urea [1, 4] [mg/dL] | TBARS [1, 4] [nM/mg] | Urea clearance [1, 4] [mL/min] | Serum Creatinine after 8th week [2] [mg/dL] | Serum Creatinine after 8th week (% Control) [2] | Total Serum Protein Levels after 8th week [2] [g/dL] | Total Serum Protein Levels after 8th week (% Control) [2] | Total Protein in Kidney Homogenate (% Control) [2] | Total Protein in Kidney Homogenate Mean [2] [µg/mL] | also measured |
| --- | --- | --- | --- | --- | --- | --- | --- | --- | --- | --- | --- | --- | --- | --- | --- | --- | --- | --- | --- | --- | --- |
| CCOc1nc2cccc(C(=O)O)c2n1Cc1ccc(-c2ccccc2-c2nc(=O)o[nH]2)cc1 [Azilsartan] | 0.69 ± 0.05 | 9.54 ± 1.54 | 0.98 ± 0.07 | 5.79 ± 0.37 | 89.83 ± 4.67 | 0.624 ± 0.11 | 0.41 ± 0.07 | 0.74 ± 0.04 | 13.49 ± 0.90 | 0.87 ± 0.04 | 6.76 ± 0.16 | 75.94 ± 4.11 | 0.540 ± 0.04 | 0.44 ± 0.03 | – | – | – | – | – | – | – |
| CCN(CCO)CCCC(C)Nc1ccnc2cc(Cl)ccc12 (centres unmarked) [Hydroxychloroquine, 2-[{4-[(7-chloroquinolin-4-yl)amino]pentyl}(ethyl)amino]ethanol] | 0.60 ± 0.06 | 8.59 ± 0.76 | 0.87 ± 0.07 | 5.57 ± 0.20 | 91.29 ± 7.29 | 0.726 ± 0.06 | 0.36 ± 0.03 | 0.67 ± 0.10 | 14.29 ± 1.33 | 0.74 ± 0.12 | 5.95 ± 0.31 | 83.64 ± 6.60 | 0.608 ± 0.06 | 0.42 ± 0.04 | 2.80 | (88.33) % Control | 5.39 | (112.24) % Control | (107.68) % Control | 1003.83 | TBARS (% Control) [2]: (57.32) % Control; TBARS Mean [2]: 0.47 nM/mg |
| CCCCc1nc(Cl)c(CO)n1Cc1ccc(-c2ccccc2-c2nn[nH]n2)cc1 [Losartan] | 0.59 ± 0.06 | 8.66 ± 0.48 | 1.23 ± 0.18 | 5.23 ± 0.31 | 101.45 ± 2.69 | 0.760 ± 0.05 | 0.33 ± 0.02 | 0.67 ± 0.12 | 12.78 ± 1.48 | 0.99 ± 0.05 | 5.75 ± 0.23 | 93.10 ± 4.45 | 0.670 ± 0.05 | 0.44 ± 0.03 | 3.00 | (94.64) % Control | 5.45 | (113.21) % Control | (98.15) % Control | 909.50 | TBARS (% Control) [2]: (76.83) % Control; TBARS Mean [2]: 0.63 nM/mg |
| CCOC(=O)[C@H](CCc1ccccc1)N[C@@H](C)C(=O)N1[C@H](C(=O)O)C[C@@H]2CCC[C@@H]21 [Ramipril] | 0.54 ± 0.05 | 8.48 ± 0.59 | 0.90 ± 0.05 | 5.30 ± 0.36 | 98.33 ± 6.15 | 0.716 ± 0.06 | 0.41 ± 0.05 | 0.61 ± 0.07 | 10.57 ± 0.37 | 0.85 ± 0.06 | 5.67 ± 0.27 | 87.83 ± 5.23 | 0.614 ± 0.06 | 0.45 ± 0.05 | – | – | – | – | – | – | – |
| CCCc1nc2c(C)cc(-c3nc4ccccc4n3C)cc2n1Cc1ccc(-c2ccccc2C(=O)O)cc1 [Telmisartan] | 0.73 ± 0.07 | 9.65 ± 1.24 | 1.02 ± 0.13 | 5.94 ± 0.46 | 92.39 ± 4.06 | 0.675 ± 0.07 | 0.45 ± 0.05 | 0.77 ± 0.04 | 13.82 ± 0.34 | 0.78 ± 0.07 | 6.53 ± 0.40 | 82.71 ± 6.53 | 0.560 ± 0.06 | 0.47 ± 0.04 | – | – | – | – | – | – | – |

— US20160030415A1, “TREATMENT AND PROPHYLAXIS OF KIDNEY DISEASES” (priority 2013, published 2016)
